# Measurements from patent US8143242B2, “Malonamide derivatives with antithrombotic activity” (Sanofi-Aventis, priority 2007, dated 2012).
# Where a name gives a salt, the structure may show the parent alone.
# Biological target: T1, human factor VIIa and TF (factor VIIa/tissue factor) (Homo sapiens, UniProt P08709)
# T1 construct: human factor VIIa and TF
# Experiment: Factor VIIa (FVIIa) chromogenic assay
# Format: biochemical
# Conditions: chromogenic substrate S-2288 500 μM; 5 nM FVIIa, 10 nM TF; 25° C.; 15 minute preincubation; pH 8.15
# Experimental: The ability of the compounds of the formulae I and Ia to inhibit factor VIIa or other enzymes like factor Xa, thrombin, plasmin, or trypsin can be assessed by determining the concentration of the compound of the formulae I and Ia that inhibits enzyme activity by 50%, i. e. the IC50 value, which is related to the inhibition constant Ki. Purified enzymes are used in chromogenic assays. The concentration of inhibitor that causes a 50% decrease in the rate of substrate hydrolysis is determined by linear regression after plotting the relative rates of hydrolysis (compared to the uninhibited control) versus the log of the concentration of the compound of formulae I and Ia. For calculating the inhibition constant Ki, the IC50 value is corrected for competition with substrate using the formula Ki=IC50/{1+(substrate concentration/Km)} wherein Km is the Michaelis-Menten constant (Chen and Prusoff, Biochem. Pharmacol. 22 (1973), 3099-3108; I. H. Segal, Enzyme Kinetics, 1975, John Wiley & Sons, New York, 100-125; which are incorporated herein by reference).
# Factor VIIa (FVIIa) Assay
# The inhibitory activity (expressed as inhibition constant Ki(FVIIa)) of the compounds of formulae I and Ia towards factor VIIa/tissue factor activity was determined using a chromogenic assay essentially as described previously (J. A. Ostrem et al., Biochemistry 37 (1998) 1053-1059 which is incorporated herein by reference). Kinetic assays were conducted at 25° C. in half-area microtiter plates (Costar Corp., Cambridge, Ma.) using a kinetic plate reader (Molecular Devices Spectramax 250). A typical assay consisted of 25 μl human factor VIIa and TF (5 nM and 10 nM, respective final concentration) combined with 40 μl of inhibitor dilutions in 10% DMSO/TBS-PEG buffer (50 mM Tris, 15 mM NaCl, 5 mM CaCl2, 0.05% PEG 8000, pH 8.15). Following a 15 minute preincubation period, the assay was initiated by the addition of 35 μl of the chromogenic substrate S-2288 (D-Ile-Pro-Arg-p-nitroanilide, Pharmacia Hepar Inc., 500 μM final concentration).
# T1 sequence (P08709 213-466 limits assumed): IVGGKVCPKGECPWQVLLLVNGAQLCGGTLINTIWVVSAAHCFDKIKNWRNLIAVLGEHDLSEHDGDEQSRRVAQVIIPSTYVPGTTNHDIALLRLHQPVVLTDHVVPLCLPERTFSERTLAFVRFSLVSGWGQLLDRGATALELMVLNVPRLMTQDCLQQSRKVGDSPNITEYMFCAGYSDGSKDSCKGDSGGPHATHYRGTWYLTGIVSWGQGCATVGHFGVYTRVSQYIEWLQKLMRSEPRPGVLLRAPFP
# T1 sequence (P08709 61-212 limits assumed): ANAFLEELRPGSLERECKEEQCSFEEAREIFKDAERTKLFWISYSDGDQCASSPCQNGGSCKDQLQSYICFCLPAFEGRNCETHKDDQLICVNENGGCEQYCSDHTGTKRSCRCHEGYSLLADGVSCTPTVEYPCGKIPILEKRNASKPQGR
# T1 sequence (P13726 33-295 partner): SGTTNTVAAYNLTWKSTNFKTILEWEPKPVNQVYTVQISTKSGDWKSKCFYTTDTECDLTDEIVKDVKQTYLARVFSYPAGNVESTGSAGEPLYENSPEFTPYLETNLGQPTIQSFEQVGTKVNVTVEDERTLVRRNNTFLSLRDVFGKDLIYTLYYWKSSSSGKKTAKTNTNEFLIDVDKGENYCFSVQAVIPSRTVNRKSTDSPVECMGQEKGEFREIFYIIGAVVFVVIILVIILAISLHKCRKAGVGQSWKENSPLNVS
row,Compound,Ki
1,"C[C@H](NC(=O)CC(=O)Nc1ccc(C(=N)N)cc1)c1ccc(Oc2cncc(C(=O)O)c2)c(Br)c1 [Example 1, 5-(2-Bromo-4-{(S)-1-[2-(4-carbamimidoyl-phenylcarbamoyl)-acetylamino]-ethyl}-phenoxy)-nicotinic acid*acetic acid salt]",0.041 µM
2,"CC(NC(=O)CC(=O)Nc1ccc(C(=N)N)cc1)c1ccc(Oc2cccc(CO)c2)c(Br)c1 (centres unmarked) [Example 2, N-{1-[3-Bromo-4-(3-hydroxymethyl-phenoxy)-phenyl]-ethyl}-N′-(4-carbamimidoyl-phenyl)-malonamide*trifluoro-acetic acid salt]",0.171 µM
3,CC(NC(=O)CC(=O)Nc1ccc(C(=N)N)cc1)c1ccc(OCCCCCC(=O)O)c(Br)c1 (centres unmarked) [Example 3],0.169 µM
4,"COCCOc1ccc([C@H](C)NC(=O)CC(=O)Nc2ccc(C(=N)N)cc2)cc1C(F)(F)F [Example 10, N-(4-Carbamimidoyl-phenyl)-N′—{(S)-1-[4-(2-methoxy-ethoxy)-3-trifluoromethyl-phenyl]-ethyl}-malonamide]",0.024 µM
5,CC(C)OCCOc1ccc(C(C)NC(=O)CC(=O)Nc2ccc(C(=N)N)cc2)cc1C(F)(F)F (centres unmarked) [Example 24],0.061 µM
6,C[C@H](NC(=O)CC(=O)Nc1ccc(C(=N)N)cc1)c1ccc(OCCO)c(C(F)(F)F)c1 [Example 26],0.047 µM
7,"CC(NC(=O)CC(=O)Nc1ccc(C(=N)N)cc1)c1ccc(S(=O)(=O)N2CCOCC2)c(C(F)(F)F)c1 (centres unmarked) [Example 28, N-(4-Carbamimidoyl-phenyl)-N′-{1-[4-(morpholine-4-sulfonyl)-3-trifluoromethyl-phenyl]-ethyl}-malonamide*trifluoro-acetic acid salt]",0.055 µM
8,CC(NC(=O)CC(=O)Nc1ccc(C(=N)N)cc1)c1ccc(OCCCN2CCCC2=O)c(C(F)(F)F)c1 (centres unmarked) [Example 44],0.078 µM
9,COC1CCC(Oc2ccc(C(C)NC(=O)CC(=O)Nc3ccc(C(=N)N)cc3)cc2C(F)(F)F)CC1 (centres unmarked) [Example 50],0.08 µM
10,CC(NC(=O)CC(=O)Nc1ccc(C(=N)N)cc1)c1ccc(OCCCCO)c(C(F)(F)F)c1 (centres unmarked) [Example 51],0.122 µM
11,CC(NC(=O)CC(=O)Nc1ccc(C(=N)N)cc1)c1ccc(OCc2ccoc2)c(Br)c1 (centres unmarked) [Example 52],0.087 µM
12,Cc1ncsc1CCOc1ccc(C(C)NC(=O)CC(=O)Nc2ccc(C(=N)N)cc2)cc1Br (centres unmarked) [Example 61],0.087 µM
13,CC(NC(=O)CC(=O)Nc1ccc(C(=N)N)cc1)c1ccc(S(=O)(=O)Cc2ccncc2)c(Cl)c1 (centres unmarked) [Example 67],0.588 µM
14,"CC(NC(=O)CC(=O)Nc1ccc(C(=N)N)cc1)c1ccc(S(=O)(=O)c2ccncc2)c(C(F)(F)F)c1 (centres unmarked) [Example 74, N-(4-Carbamimidoyl-phenyl)-N′-{1-[4-(pyridine-4-sulfonyl)-3-trifluoromethyl-phenyl]-ethyl}-malonamide*trifluoro-acetic acid salt]",0.036 µM
15,COCCNS(=O)(=O)c1ccc([C@H](C)NC(=O)CC(=O)Nc2ccc(C(=N)N)cc2)cc1C(F)(F)F [Example 75],0.037 µM
16,COCCN(C)S(=O)(=O)c1ccc([C@H](C)NC(=O)CC(=O)Nc2ccc(C(=N)N)cc2)cc1C(F)(F)F [Example 76],0.027 µM
17,C[C@H](NC(=O)CC(=O)Nc1ccc(C(=N)N)cc1)c1ccc(S(=O)(=O)N2CCOC[C@@H]2C)c(C(F)(F)F)c1 [Example 112],0.029 µM
18,C[C@H](NC(=O)CC(=O)Nc1ccc(C(=N)N)cc1)c1ccc(OC2CCOCC2)c(-c2ccc(Cl)s2)c1 [Example 113],0.007 µM
19,C[C@H](NC(=O)CC(=O)Nc1ccc(C(=N)N)cc1)c1ccc(S(=O)(=O)N2CCOCC2)c(Br)c1 [Example 117],0.03 µM
20,N-(4-Carbamimidoyl-phenyl)-N′—[(S)-1-(3-trifluoromethanesulfonyl-phenyl)-ethyl]-malonamide*trifluoro-acetic acid salt [Example 77],0.099 µM
